Test results: paper PMC4995097, “Talin-KANK1 interaction controls the recruitment of cortical microtubule stabilizing complexes to focal adhesions” (eLife, 2016)

Tested on: HA-KANK1
Experiment: Streptavidin pull down of BioGFP-talin1 constructs with HA-KANK1, Western blot
Type: binding
Conditions: HEK293T cells
Text: BioGFP-tagged KANK1 mutants were constructed using PCR and pBioGFP-C1 vector as previously described ([van der Vaart et al., 2013]). Rescue constructs for BioGFP-tagged KANK1 were either based on the version previously described ([van der Vaart et al., 2013]) or a version obtained by PCR-based mutagenesis of the sequence […] to […]. mCherry-tagged paxillin construct was made by replacing GFP from pQC-GPXN ([Bouchet et al., 2011]) by mCherry (pmCherry-C1, Clontech). TagRFP-tagged paxillin construct was made by PCR-based amplification and cloning in pTagRFP-T-C1 (kind gift from Y. Mimori-Kiyosue, Riken Institute, Japan). HA-tagged KANK1 construct was generated by cloning KANK1 coding sequence into pMT2-SM-HA (gift of C. Hoogenraad, Utrecht University, The Netherlands). pLVX-IRES-Neo (pLVIN) vectors was constructed by cloning the IRES-neomycin resistance cassette from the pQCXIN plasmid (Clontech) into the pLVX-IRES-Puro plasmid (Clontech). […]
Streptavidin-based pull down assays of biotinylated proteins expressed using pBioGFP-C1 constructs transfected in HEK293T cells was performed and analyzed as previously described ([van der Vaart et al., 2013]). […] For RP-nanoLC-MS/MS, samples were resuspended in 10% formic acid (FA) / 5% DMSO and was analyzed using a Proxeon Easy-nLC100 (Thermo Scientific) connected to an Orbitrap Q-Exactive mass spectrometer. […]

Substance: GFP-talin1-G1404L: GFP-tagged mouse talin1 with single point mutation G1404L
- interaction of talin1 constructs with KANK1 (in words): abrogated the interaction of full-length talin1 or its R7 fragment with full-length KANK1
